Target: T1, human TREM2 (Homo sapiens, UniProt Q9NZC2)
T1 construct: expressed in transfected cells; host or cells: HEK293T-hTREM2 cells (HEK cell line expressing human TREM2 and DAP12)
Test: TREM2 agonist potency by cellular phosphorylation of Syk (AlphaLisa) in HEK293T-hTREM2 cells expressing human TREM2 and DAP12
Assay type: cell-based
Conditions: HEK293 cells expressing hTREM2 and DAP12; 45 minutes at room temperature; Syk phosphorylation, AlphaLisa; read-out: hTREM2 EC50
Protocol: In vitro Measurement of Triggering Receptor Expressed on Myeloid Cells 2 activity using cellular phosphorylation of Spleen Tyrosine Kinase (“Syk”) Assays
Measurement of TREM2 agonist potency was done using a HEK cell line expressing human TREM2 and DAP12 (HEK293T-hTREM2 cells). Binding of small molecules to, and activation of, TREM2 increases the phosphorylation of Syk. The resultant levels of Syk phosphorylation are measured using a commercial AlphaLisa reagent kit. To perform the assay, HEK-hTREM2 cells were plated at 14,000 cells per well in a 384 well plate, in 25 μL of complete growth media and incubated at 37° C., 5% CO2 for 20-24 hours.
Prior to the assay, test compounds were diluted in the 384 well plates in assay buffer and allowed to equilibrate for 30 minutes. Growth media was removed from cell plates by inversion on blotting paper, and 25 μL of test articles in assay buffer was added to cells. Cells were incubated for 45 minutes at room temperature. After 45 minutes, assay buffer was removed and 10 μL of lysis buffer was added. Plates were shaken for 20 minutes at 350 RPM at room temperature. After complete lysis, AlphaLisa reagents were added to the lysate, and fluourescence intensity was measured using a Perkin Elmer Envision plate reader. Intensities were used to generate a standard curve, and % activation was calculated. Curve fitting was performed using Prism v9 software, log(agonist) vs response—variable slope (four parameters), and EC50s were calculated from the curve fit.
The results presented in Table B have been generated with the in vitro assay described above. This assay may be used to test any of the compounds described herein to assess and characterize a compound's ability to act as an agonist of TREM2.

T1 sequence (Q9NZC2 19-230): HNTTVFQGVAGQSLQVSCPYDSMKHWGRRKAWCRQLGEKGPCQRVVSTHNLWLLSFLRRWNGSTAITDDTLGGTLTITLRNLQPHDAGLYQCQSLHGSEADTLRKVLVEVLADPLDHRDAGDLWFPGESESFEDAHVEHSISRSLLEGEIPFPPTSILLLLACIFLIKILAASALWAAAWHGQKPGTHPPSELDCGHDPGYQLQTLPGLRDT
T1 sequence (O43914 22-113 partner): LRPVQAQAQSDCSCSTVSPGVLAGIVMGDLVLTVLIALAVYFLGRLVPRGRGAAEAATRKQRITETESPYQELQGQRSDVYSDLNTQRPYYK

Row | Compound | EC50
1 | Cc1noc(-c2cc3c(-c4ccc(F)cc4F)nc([C@H]4CCO[C@@H](c5cnn(C6CC6)c5)C4)nc3nc2C)n1 (racemic) [Example 19, 5-[4-(2,4-difluorophenyl)-7-methyl-2-[rac-(2R,4S)-2-(1-cyclopropylpyrazol-4-yl)-tetrahydropyran-4-yl]pyrido[2,3-d]pyrimidin-6-yl]-3-methyl-1,2,4-oxadiazole] | < 100 nM
2 | Cc1nc2nc([C@H]3CCO[C@@H](c4cn(C)c(=O)s4)C3)nc(C34CC(C(F)(F)F)(C3)C4)c2cc1C#N (racemic) [Example 81, 7-methyl-2-[rac-(2R,4S)-2-(3-methyl-2-oxo-thiazol-5-yl)tetrahydropyran-4-yl]-4-[3-(trifluoromethyl)-1-bicyclo[1.1.1]pentanyl]pyrido[2,3-d]pyrimidine-6-carbonitrile] | < 100 nM
3 | Cc1nc2nc(N3C[C@@H](C)O[C@@H](c4cnn(C5CC5)c4)C3)nc(C34CC(C(F)(F)F)(C3)C4)c2cc1C(F)(F)Cl (racemic) [Example 90, (2S,6R)-4-(6-(chloro-difluoromethyl)-7-methyl-4-(3-(trifluoromethyl)-bicyclo[1.1.1]pentan-1-yl)pyrido[2,3-d]pyrimidin-2-yl)-2-(1-cyclopropyl-1H-pyrazol-4-yl)-6-methylmorpholine] | 100 to 500 nM
4 | Cc1nc2nc([C@H]3CCO[C@@H](c4cn(C)c(=O)s4)C3)nc(C34CC(C(F)(F)F)(C3)C4)c2nc1C (racemic) [Example 106, 3-methyl-5-[rac-(2R,4S)-4-[6,7-dimethyl-4-[3-(trifluoromethyl)-1-bicyclo[1.1.1]pentanyl]-pteridin-2-yl]tetrahydropyran-2-yl]thiazol-2-one] | < 100 nM
5 | COc1ncc([C@H]2C[C@@H](c3nc(C45CC(C(F)(F)F)(C4)C5)c4nc(C)c(C)nc4n3)CCO2)s1 (racemic) [Example 117, 2-methoxy-5-[rac-(2R,4S)-4-[6,7-dimethyl-4-[3-(trifluoromethyl)-1-bicyclo[1.1.1]pentanyl]pteridin-2-yl]tetrahydropyran-2-yl]thiazole] | < 100 nM
6 | Cc1nc2nc([C@H]3CCO[C@@H](c4ccnc(N(C)C)c4)C3)nc(C34CC(C(F)(F)F)(C3)C4)c2nc1C (racemic) [Example 124, N,N-dimethyl-4-[rac-4-[6,7-dimethyl-4-[3-(trifluoromethyl)-1-bicyclo[1.1.1]pentanyl]pteridin-2-yl]tetrahydropyran-2-yl]pyridin-2-amine] | < 100 nM
7 | Cc1nc2nc([C@@H]3CCO[C@@H](c4ccnc(N(C)C)c4)C3)nc(C34CC(C(F)(F)F)(C3)C4)c2nc1C (racemic) [Example 125, N,N-dimethyl-4-[rac-4-[6,7-dimethyl-4-[3-(trifluoromethyl)-1-bicyclo[1.1.1]pentanyl]pteridin-2-yl]tetrahydropyran-2-yl]pyridin-2-amine] | 100 to 500 nM
8 | Cc1nc2nc(C3CCOC(c4cnnc(N(C)C)c4)C3)nc(C34CC(C(F)(F)F)(C3)C4)c2nc1C (racemic) [Example 129, N,N-dimethyl-5-[rac-cis-4-[6,7-dimethyl-4-[3-(trifluoromethyl)-1-bicyclo[1.1.1]pentanyl]pteridin-2-yl]tetrahydropyran-2-yl]pyridazin-3-amine] | < 100 nM
9 | Cc1nc2nc(C3CCOC(c4cnnc(N(C)C)c4)C3)nc(C34CC(C(F)(F)F)(C3)C4)c2nc1C (racemic) [Example 130, N,N-dimethyl-5-[rac-trans-4-[6,7-dimethyl-4-[3-(trifluoromethyl)-1-bicyclo[1.1.1]pentanyl]pteridin-2-yl]tetrahydropyran-2-yl]pyridazin-3-amine] | 100 to 500 nM
10 | Cc1nc2nc(N3C[C@@H](C)O[C@@H](c4ccnc(N(C)C)c4)C3)nc(C34CC(C(F)(F)F)(C3)C4)c2nc1C (racemic) [Example 142, N,N-dimethyl-4-[rac-(2S,6R)-4-[6,7-dimethyl-4-[3-(trifluoromethyl)-1-bicyclo[1.1.1]pentanyl]pteridin-2-yl]-6-methyl-morpholin-2-yl]pyridin-2-amine] | 100 to 500 nM
11 | CO[C@H]1CN(c2nc(-c3ccc(F)cc3F)c3nc(C)c(C)nc3n2)C[C@@H]1c1cn(C2CC2)nn1 (stereo in doubt) [Example 134, 2-[3-(1-cyclopropyl-triazol-4-yl)-4-methoxy-pyrrolidin-1-yl]-4-(2,4-difluorophenyl)-6,7-dimethyl-pteridine formic acid] | 100 to 500 nM
12 | COC(=O)c1cc2c(-c3ccc(F)cc3F)nc(N3C[C@@H](C)O[C@@H](c4cnn(C5CC5)c4)C3)nc2nc1C [Example 1, methyl 2-[(2S,6R)-2-(1-cyclopropylpyrazol-4-yl)-6-methyl-morpholin-4-yl]-4-(2,4-difluorophenyl)-7-methyl-pyrido[2,3-d]pyrimidine-6-carboxylate] | < 100 nM
13 | Cc1nc2nc(N3C[C@@H](C)O[C@@H](c4cnn(C5CC5)c4)C3)nc(-c3ccc(F)cc3F)c2cc1C(=O)N(C)C [Example 2, 2-((2S,6R)-2-(1-cyclopropyl-1H-pyrazol-4-yl)-6-methylmorpholino)-4-(2,4-difluorophenyl)-N,N-7-trimethylpyrido[2,3-d]pyrimidine-6-carboxamide] | > 500 nM
14 | Cc1nc2nc(N3C[C@@H](C)O[C@@H](c4cnn(C5CC5)c4)C3)nc(-c3ccc(F)cc3F)c2cc1C(=O)O [Example 3, 2-[(2S,6R)-2-(1-cyclopropylpyrazol-4-yl)-6-methyl-morpholin-4-yl]-4-(2,4-difluorophenyl)-7-methyl-pyrido[2,3-d]pyrimidine-6-carboxylic acid] | > 500 nM
15 | CC(=O)c1cc2c(-c3ccc(F)cc3F)nc(N3C[C@@H](C)O[C@@H](c4cnn(C5CC5)c4)C3)nc2nc1C [Example 4, 1-[2-[(2S,6R)-2-(1-cyclopropylpyrazol-4-yl)-6-methyl-morpholin-4-yl]-4-(2,4-difluorophenyl)-7-methyl-pyrido[2,3-d]pyrimidin-6-yl]ethanone] | < 100 nM
16 | CO/N=C(\C)c1cc2c(-c3ccc(F)cc3F)nc(N3C[C@@H](C)O[C@@H](c4cnn(C5CC5)c4)C3)nc2nc1C [Example 5, 1-[2-[(2S,6R)-2-(1-cyclopropylpyrazol-4-yl)-6-methyl-morpholin-4-yl]-4-(2,4-difluorophenyl)-7-methyl-pyrido[2,3-d]pyrimidin-6-yl]-N-methoxy-ethanimine] | < 100 nM
17 | Cc1noc(-c2cc3c(-c4ccc(F)cc4F)nc(N4C[C@@H](C)O[C@@H](c5cnn(C6CC6)c5)C4)nc3nc2C)n1 [Example 6, (2S,6R)-2-(1-cyclopropylpyrazol-4-yl)-4-[4-(2,4-difluorophenyl)-7-methyl-6-(3-methyl-1,2,4-oxadiazol-5-yl)-pyrido[2,3-d]pyrimidin-2-yl]-6-methyl-morpholine] | < 100 nM
18 | Cc1nc2nc(N3C[C@@H](C)O[C@@H](c4cnn(C5CC5)c4)C3)nc(-c3ccc(F)cc3F)c2cc1C1=NCCO1 [Example 7, (2S,6R)-2-(1-cyclopropylpyrazol-4-yl)-4-[4-(2,4-difluorophenyl)-6-(4,5-dihydrooxazol-2-yl)-7-methyl-pyrido[2,3-d]pyrimidin-2-yl]-6-methyl-morpholine] | < 100 nM
19 | COC(=O)c1cc2c(-c3ccc(F)cc3F)nc([C@H]3CCO[C@@H](c4cnn(C5CC5)c4)C3)nc2nc1C [Example 8, methyl 2-((2R,4S)-2-(1-cyclopropyl-1H-pyrazol-4-yl)tetrahydro-2H-pyran-4-yl)-4-(2,4-difluorophenyl)-7-methylpyrido[2,3-d]-pyrimidine-6-carboxylate] | < 100 nM

From patent US20260327225A1, “HETEROCYCLIC COMPOUNDS AS TRIGGERING RECEPTOR EXPRESSED ON MYELOID CELLS 2 AGONISTS AND METHODS OF USE” (VIGIL NEUROSCIENCE, INC., priority 2023, published 2026)
